Test results from publication PMC3784060 (Cancer Chemotherapy and Pharmacology, 2013).
Read-outs that look alike come from different tables or passages of the source.

Key:
HL-60, MOLT-4, K562 = conditions: 24 or 72 vs. 2 h
Procedure: Primary leukemia cells for in vitro studies were isolated from BM or PB obtained from AML or ALL patients enrolled on a separate University of Maryland, Baltimore, IRB-approved protocol for tissue collection and not treated on this clinical study. The cells were isolated by gradient centrifugation using LSM (Mediatech) according to the manufacturer’s protocol. Cells were used either fresh or after viable freezing (FBS/10 % DMSO). Primary leukemia cells were cultured in RPMI 1640 (Invitrogen, Grand Island, NY, USA) supplemented with 15 % heat-inactivated FBS (HyClone Laboratories Inc., Red Bank, NJ, USA) and 200 mM L-Glutamine (Invitrogen). Leukemia cell lines HL-60 (AML), MOLT-4 (T cell ALL), and K562 (chronic myelogenous leukemia [CML] in erythroid blast transformation) were purchased from American Type Culture Collection (ATCC, Manassas, VA, USA) and cultured in RPMI 1640 (Invitrogen) supplemented with 10 % heat-inactivated FBS (HyClone Laboratories Inc.) and 200 mM L-Glutamine (Invitrogen).

[1] = test system: Mcl-1, phospho-Rb (Ser807/811), PARP cleavage; experiment: pharmacodynamic Western blot on patients' PBMC; assay type: in vivo, human
Procedure: For Western blot analysis, PB mononuclear cells (PBMC) were isolated by gradient centrifugation using lymphocyte separation medium (LSM) (Mediatech Inc., Manassas, VA, USA), and protein extracts were prepared and analyzed for the expression of Mcl-1, phospho-Rb (Ser807/811), and PARP cleavage as described below.
For Western blot analysis, leukemia cell pellets (primary leukemia cells, HL-60, MOLT-4, K562) were washed with PBS and lysed with RIPA buffer (Sigma-Aldrich, St. Louis, MO, USA) supplemented with Complete Mini™ protease inhibitor and PHOStop™ phosphatase inhibitors (Roche). Equal amounts of proteins up to 25 μg were separated on 4–12 % NuPAGE precast gels in 1X MOPS or 1X MES buffer (Invitrogen) and electro-blotted to PVDF membranes (Millipore, Billerica, MA, USA). The membranes were blocked with 5 % dry milk in 1X TBS/0.1 % Tween 20 for at least 1 h at room temperature. Blots were incubated with primary antibody (Ab) overnight at 4 °C, washed 3 times in TBS/0.1 % Tween 20, and then incubated with secondary Ab for 1 h at room temperature. Blots were washed three times, and the signal was detected with Amersham™ ECL™ detection systems (GE Healthcare, Pittsburgh, PA, USA). The following primary Abs were used: mouse anti-PARP (BD Pharmingen), rabbit anti-phospho-Rb (Ser807/811) and rabbit anti-Mcl-1 (both from Santa Cruz, Santa Cruz, CA, USA), rabbit anti-caspase 9 p35 and anti-caspase 3 (both from Cell Signaling, Danvers, MA, USA), and mouse anti-β-actin (Sigma-Aldrich). […] Secondary horseradish peroxidase-conjugated anti-mouse or anti-rabbit Abs were from Cell Signaling (Beverly, MA, USA). The Western blot signals were measured by densitometry using ImageJ 1.45I software (NIH, Bethesda, USA).

[2] = test system: PARP, Mcl-1, p-Rb in primary leukemia samples; experiment: Western blot, primary leukemia cells in vitro; assay type: cell-based, human; conditions: 6-h exposure, ≥20 nM; more prominent at 200 nM and 24 h
Procedure: Primary leukemia cells for in vitro studies were isolated from BM or PB obtained from AML or ALL patients enrolled on a separate University of Maryland, Baltimore, IRB-approved protocol for tissue collection and not treated on this clinical study. The cells were isolated by gradient centrifugation using LSM (Mediatech) according to the manufacturer’s protocol. Cells were used either fresh or after viable freezing (FBS/10 % DMSO). Primary leukemia cells were cultured in RPMI 1640 (Invitrogen, Grand Island, NY, USA) supplemented with 15 % heat-inactivated FBS (HyClone Laboratories Inc., Red Bank, NJ, USA) and 200 mM L-Glutamine (Invitrogen). […]
For Western blot analysis, leukemia cell pellets (primary leukemia cells, HL-60, MOLT-4, K562) were washed with PBS and lysed with RIPA buffer (Sigma-Aldrich, St. Louis, MO, USA) supplemented with Complete Mini™ protease inhibitor and PHOStop™ phosphatase inhibitors (Roche). […] Blots were washed three times, and the signal was detected with Amersham™ ECL™ detection systems (GE Healthcare, Pittsburgh, PA, USA). […] The Western blot signals were measured by densitometry using ImageJ 1.45I software (NIH, Bethesda, USA).

[3] = cited from earlier work

In the case of `CCc1cnn2c(NCc3ccc[n+]([O-])c3)cc(N3CCCC[C@H]3CCO)nc12` [Dinaciclib], the “growth inhibitory and apoptosis-inducing effect of prolonged exposure” value (HL-60, MOLT-4, K562) is reported as “more potent growth inhibitory and apoptosis-inducing effect”, the “down-regulation of Mcl-1” value ([1]; PBMC 4 h after end of infusion, 4 specimens) is reported as 34–76% and the PARP cleavage ([1]; PBMC 4 h post-treatment) is reported as “Induction of PARP cleavage was also observed at 4 h”. The Mcl-1 expression ([1]; PBMC 4 h post-treatment, 1 AML and 3 ALL patients) was “decrease in Mcl-1 was seen in all specimens”, the Mcl-1 expression ([1]; PBMC 24 h post-treatment) was “returned to baseline by 24 h” and the “p-Rb (Ser807/811)” value ([1]; PBMC, 2 patients had almost undetectable baseline p-Rb) was “Decline in p-Rb was observed in 1 patient”. The “Mcl-1 expression and PARP cleavage” value [2] was “down-regulation of Mcl-1 and induction of PARP cleavage were observed in all 5 primary leukemia samples”, the “recommended phase II dose (RPTD)” value ([3]; 2-h infusion on days 1, 8, 15 every 28 days) was 12 mg/m^2 and the “recommended phase II dose (RPTD)” value ([3]; 2-h infusion once every 21 days) was 50 mg/m^2. For the same molecule, the average dinaciclib concentration ([3]; 8-h continuous infusion, 7.4–50 mg/m^2, preliminary) was 200–1,031 nM and the average dinaciclib concentration ([3]; 24-h continuous infusion, 7.4–14.6 mg/m^2, preliminary) was 82.3 to 184 nM.
